In this data set the target is ATP-dependent translocase ABCB1 (Homo sapiens, UniProt P08183). The data set is described as follows: TP_TRANSPORTER: mRNA expression level of MDR1 was inversely related to the concentration/dose ratio in vivo, recipients of living-donor liver transplantation. In kind it is functional, organism-based.

The results in this text go back to ChEMBL document CHEMBL2074381, “Pharmacokinetic and prognostic significance of intestinal MDR1 expression in recipients of living-donor liver transplantation” (Clin Pharmacol Ther, 2001).

Sequence of ATP-dependent translocase ABCB1 (P08183 whole entry): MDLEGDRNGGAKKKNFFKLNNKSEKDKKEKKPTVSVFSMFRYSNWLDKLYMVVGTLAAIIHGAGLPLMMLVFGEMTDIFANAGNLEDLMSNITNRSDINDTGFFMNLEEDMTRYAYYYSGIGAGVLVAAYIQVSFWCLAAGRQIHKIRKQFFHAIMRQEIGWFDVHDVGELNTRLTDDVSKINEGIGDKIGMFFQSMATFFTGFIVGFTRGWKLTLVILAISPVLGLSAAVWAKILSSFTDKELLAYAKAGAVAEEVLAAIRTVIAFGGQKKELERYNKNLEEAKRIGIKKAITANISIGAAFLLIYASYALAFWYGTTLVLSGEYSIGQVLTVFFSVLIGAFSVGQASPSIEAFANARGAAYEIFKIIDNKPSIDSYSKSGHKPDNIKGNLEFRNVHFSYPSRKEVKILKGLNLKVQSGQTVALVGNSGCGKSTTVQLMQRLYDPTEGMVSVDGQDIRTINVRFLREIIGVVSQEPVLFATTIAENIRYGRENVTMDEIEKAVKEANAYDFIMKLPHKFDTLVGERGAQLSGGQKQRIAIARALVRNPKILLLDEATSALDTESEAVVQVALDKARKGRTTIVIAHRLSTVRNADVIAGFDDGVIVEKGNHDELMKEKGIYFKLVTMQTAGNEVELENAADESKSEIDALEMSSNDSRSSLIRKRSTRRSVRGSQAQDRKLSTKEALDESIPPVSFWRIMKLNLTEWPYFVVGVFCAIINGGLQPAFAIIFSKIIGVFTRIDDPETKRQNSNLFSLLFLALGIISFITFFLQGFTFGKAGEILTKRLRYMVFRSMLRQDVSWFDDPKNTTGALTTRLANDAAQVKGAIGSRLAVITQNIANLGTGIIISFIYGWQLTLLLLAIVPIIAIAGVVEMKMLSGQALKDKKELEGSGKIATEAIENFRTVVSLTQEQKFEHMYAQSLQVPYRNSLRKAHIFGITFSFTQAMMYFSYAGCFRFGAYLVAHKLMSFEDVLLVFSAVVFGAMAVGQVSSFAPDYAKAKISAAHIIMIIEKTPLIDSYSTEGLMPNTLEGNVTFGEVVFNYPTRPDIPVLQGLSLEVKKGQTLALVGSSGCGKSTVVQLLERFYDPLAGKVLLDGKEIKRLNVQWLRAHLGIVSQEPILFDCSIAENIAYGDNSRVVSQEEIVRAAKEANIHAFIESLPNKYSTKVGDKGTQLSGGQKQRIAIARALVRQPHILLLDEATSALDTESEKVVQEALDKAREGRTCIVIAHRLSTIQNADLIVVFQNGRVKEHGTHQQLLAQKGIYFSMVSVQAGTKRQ

Consider `C=CC[C@@H]1/C=C(\C)C[C@H](C)C[C@H](OC)[C@H]2O[C@@](O)(C(=O)C(=O)N3CCCC[C@H]3C(=O)O[C@H](/C(C)=C/[C@@H]3CC[C@@H](O)[C@H](OC)C3)[C@H](C)[C@@H](O)CC1=O)[C@H](C)C[C@@H]2OC` [TACROLIMUS ANHYDROUS], for which the Activity result is “substrate [+]”.
